Data from patent US6939890B2, “sPLA2 inhibitors” (Eli Lilly and Company, priority 1999, dated 2005).
Counter-ions that a name gives are not always drawn.

How the values were obtained:
[1] = target: T1, recombinant human secreted phospholipase A2 (Homo sapiens, UniProt P14555); assay: chromogenic assay for inhibitors of recombinant human secreted phospholipase A2 (diheptanoyl thio-PC/DTNB, 96 well microtiter plates); format: biochemical; conditions: included in the table for purposes of comparison only
T1 sequence (P14555 21-144): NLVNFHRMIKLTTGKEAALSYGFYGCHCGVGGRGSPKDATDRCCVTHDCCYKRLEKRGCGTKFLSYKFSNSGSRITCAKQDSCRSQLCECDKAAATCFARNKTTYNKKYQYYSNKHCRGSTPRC
Excerpt: The following chromogenic assay procedure was used to identify and evaluate inhibitors of recombinant human secreted phospholipase A2. The assay described herein has been adapted for high volume screening using 96 well microtiter plates. A general description of this assay method is found in the article, “Analysis of Human Synovial Fluid Phospholipase A2 on Short Chain Phosphatidylcholine-Mixed Micelles: Development of a Spectrophotometric Assay Suitable for a Microtiterplate Reader”, by Laure J. Reynolds, Lori L. Hughes, and Edward A Dennis, Analytical Biochemistry, 204, pp. 190-197, 1992 (the disclosure of which is incorporated herein by reference): […]
A measured volume of racemic dipheptanoyl thio PC supplied in chloroform at a concentration of 100 mg/ml is taken to dryness and redissolved in 10 millimolar […]
• 1. […] Read absorbance of wells at 405 nanometers with an automatic plate reader.
All compounds were tested in triplicate. […] Compounds initially found to be active were reassayed to confirm their activity and, if sufficiently active, IC50 values were determined. […] In all cases, % inhibition measured at 405 nanometers generated by enzyme reactions containing inhibitors relative to the uninhibited control reactions was determined. […] IC50 were determined by plotting log concentration versus inhibition values in the range from 10-90% inhibition.

Compound | melting point | inhibiting sPLA2 (statement in words) [1]
CCc1c(C(=O)C(N)=O)c2c(OCC(=O)N(C)OC)cccc2n1Cc1ccccc1 (as salt: hydrochloride) [Compound 2Ac, 2-[[3-(Aminooxoacetyl)-2-ethyl-1-(phenylmethyl)-1H-indol-4-yl]oxy]-N-(methyl)-N-(methyloxy)acetamide] | 168 to 170 °C | 
CCc1c(C(=O)C(N)=O)c2c(OCC(=O)N(C)O)cccc2n1Cc1ccccc1 (as salt: hydrochloride) [Compound 2Ad, 2-[[3-(Aminooxoacetyl)-2-ethyl-1-(phenylmethyl)-1H-indol-4-yl]oxy]-N-(hydroxy)-N-(methyl)acetamide] | 217 °C (dec.) | 
CCONC(=O)COc1cccc2c1c(C(=O)C(N)=O)c(CC)n2Cc1ccccc1 (as salt: hydrochloride) [Compound 2Ae, 2-[[3-(Aminooxoacetyl)-2-ethyl-1-(phenylmethyl)-1H-indol-4-yl]oxy]-N-(ethyloxy)acetamide] | 176 to 178 °C | 
C=CCONC(=O)COc1cccc2c1c(C(=O)C(N)=O)c(CC)n2Cc1ccccc1 (as salt: hydrochloride) [Compound 2Af, 2-[[3-(Aminooxoacetyl)-2-ethyl-1-(phenylmethyl)-1H-indol-4-yl]oxy]-N-(2-propenyloxy)acetamide] | 175 to 177 °C | 
CCc1c(C(=O)C(N)=O)c2c(OCC(=O)N(O)C(C)C)cccc2n1Cc1ccccc1 (as salt: hydrochloride) [Compound 2Ag, 2-[[3-(Aminooxoacetyl)-2-ethyl-1-(phenylmethyl)-1H-indol-4-yl]oxy]-N-(hydroxy)-N-(2-propyl)acetamide] | 202 °C (dec.) | 
CCc1c(C(=O)C(N)=O)c2c(OCC(=O)NOC(C)(C)C)cccc2n1Cc1ccccc1 (as salt: hydrochloride) [Compound 2Ah, 2-[[3-(Aminooxoacetyl)-2-ethyl-1-(phenylmethyl)-1H-indol-4-yl]oxy]-N-(tert-butyloxy)acetamide] | 203 to 205 °C | 
CCc1c(C(=O)C(N)=O)c2c(OCC(=O)NOCc3ccccc3)cccc2n1Cc1ccccc1 (as salt: hydrochloride) [Compound 2Aj, 2-[[3-(Aminooxoacetyl)-2-ethyl-1-(phenylmethyl)-1H-indol-4-yl]oxy]-N-(phenylmethyloxy)acetamide] | 167 to 169 °C | 
CCc1c(C(=O)C(N)=O)c2c(OCC(=O)OC)cccc2n1Cc1ccccc1 [1 (SM), [[3-(2-Amino-1,2-dioxoethyl)-2-ethyl-1-(phenylmethyl)-1H-indol-4-yl]oxy]acetic acid methyl ester] |  | highly active
CCc1c(C(=O)C(N)=O)c2c(OCC(=O)NOC)cccc2n1Cc1ccccc1 [Compound 2Ab, 2-[[3-(Aminooxoacetyl)-2-ethyl-1-(phenylmethyl)-1H-indol-4-yl]oxy]-N-(methyloxy)acetamide] | 228 °C (dec.) | 

Further lines, with some results ahead:

melting point | Compound | inhibiting sPLA2 (statement in words) [1]
205 °C (dec.) | CCc1c(C(=O)C(N)=O)c2c(OCC(=O)NOc3ccccc3)cccc2n1Cc1ccccc1 (as salt: hydrochloride) [Compound 2Al, 2-[[3-(Aminooxoacetyl)-2-ethyl-1-(phenylmethyl)-1H-indol-4-yl]oxy]-N-(phenyloxy)acetamide] | 
210 °C (dec.) | CCc1c(C(=O)C(N)=O)c2c(OCC(=O)N(O)C3CCCCC3)cccc2n1Cc1ccccc1 (as salt: hydrochloride) [Compound 2An, 2-[[3-(Aminooxoacetyl)-2-ethyl-1-(phenylmethyl)-1H-indol-4-yl]oxy]-N-(cyclohexyl)-N-(hydroxy)acetamide] | 
186.5 to 188.5 °C | CCc1c(C(=O)C(N)=O)c2c(OCC(=O)N(C)OCc3ccccc3)cccc2n1Cc1ccccc1 [Compound 2Ak, 2-[[3-(Aminooxoacetyl)-2-ethyl-1-(phenylmethyl)-1H-indol-4-yl]oxy]-N-(methyl)-N-(phenylmethyloxy)acetamide] | 
146 to 147.5 °C | CCc1c(C(=O)C(N)=O)c2c(OCC(=O)N(C)Oc3ccccc3)cccc2n1Cc1ccccc1 [Compound 2Am, 2-[[3-(Aminooxoacetyl)-2-ethyl-1-(phenylmethyl)-1H-indol-4-yl]oxy]-N-(methyl)-N-(phenyloxy)acetamide] | 
187 to 189 °C | CCc1c(CC(N)=O)c2c(OCC(=O)NO)cccc2n1Cc1ccccc1 [Compound 2Ba, 2-[[3-(2-Amino-2-oxoethyl)-2-ethyl-1-(phenylnmethyl)-1H-indol-4-yl]oxy]-N-(hydroxy)acetamide] | 
